System: NCI-H23 complex spheroids with HUVEC/MSC, viability
Assay: Anticancer human tumor NCI-H23 cell line growth inhibition [RAS];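 also: spheroids exposed to compound for 7 days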;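 as to viability, T/C: 100% = DMSO vehicle control viability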
Details: for IC50: curve of first compound; for viability, T/C: stronger effect = lower value
How it was run: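 Tumour cells grown as complex spheroids with HUVEC endothelial cells and mesenchymal stem cells, treated with RAS pathway inhibitor combinations. Each agent spans half-log steps from near clinical Cmax, or 10 microM where Cmax is unknown.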

With CC(=O)OC12COC1CC(O)C1(C)C(=O)C(O)C3=C(C)C(OC(=O)C(O)C(NC(=O)OC(C)(C)C)c4ccccc4)CC(O)(C(OC(=O)c4ccccc4)C21)C3(C)C (centres undefined) + CCn1c(-c2cccnc2C(C)OC)c2c3cc(ccc31)N1CCOC(CC(NC(=O)C(C(C)C)N(C)C(=O)C3(F)CCN(C(=O)C#CC(C)(C)N(C)C)CC3)C(=O)N3CCCC(N3)C(=O)OCC(C)(C)C2)C1 the IC50 (second compound 0.000949 µM) was under 31.6 nM, the IC50 (second compound 0.003 µM) was under 31.6 nM and the IC50 (second compound 0.00949 µM) was under 31.6 nM. For the same molecule, the IC50 (second compound 0.03 µM) was under 31.6 nM, the IC50 (second compound 0.0949 µM) was under 31.6 nM and the IC50 (second compound 0.3 µM) was under 31.6 nM. The viability, T/C (second compound 0.000949 µM, first compound 0.0316 µM) was 10.4%, the viability, T/C (second compound 0.000949 µM, first compound 0.1 µM) was 12.4% and the viability, T/C (second compound 0.000949 µM, first compound 0.316 µM) was 9.29%. For the same molecule, the viability, T/C (second compound 0.000949 µM, first compound 1 µM) was 12.5%, the viability, T/C (second compound 0.000949 µM, first compound 3.16 µM) was 17.6% and the viability, T/C (second compound 0.000949 µM, first compound 10 µM) was 17.5%. For the same molecule, the viability, T/C (second compound 0.003 µM, first compound 0.0316 µM) was 11.3%, the viability, T/C (second compound 0.003 µM, first compound 0.1 µM) was 10.6% and the viability, T/C (second compound 0.003 µM, first compound 0.316 µM) was 10.2%. The viability, T/C (second compound 0.003 µM, first compound 1 µM) was 11.5%, the viability, T/C (second compound 0.003 µM, first compound 3.16 µM) was 17% and the viability, T/C (second compound 0.003 µM, first compound 10 µM) was 14.2%. The viability, T/C (second compound 0.00949 µM, first compound 0.0316 µM) was 9.65%, the viability, T/C (second compound 0.00949 µM, first compound 0.1 µM) was 8.65% and the viability, T/C (second compound 0.00949 µM, first compound 0.316 µM) was 11.5%. The viability, T/C (second compound 0.00949 µM, first compound 1 µM) was 11%, the viability, T/C (second compound 0.00949 µM, first compound 3.16 µM) was 12.8% and the viability, T/C (second compound 0.00949 µM, first compound 10 µM) was 15.8%. It also gave a viability, T/C (second compound 0.03 µM, first compound 0.0316 µM) of 9.84%, a viability, T/C (second compound 0.03 µM, first compound 0.1 µM) of 8.29% and a viability, T/C (second compound 0.03 µM, first compound 0.316 µM) of 10.2%. The viability, T/C (second compound 0.03 µM, first compound 1 µM) was 9.41%, the viability, T/C (second compound 0.03 µM, first compound 3.16 µM) was 11.5% and the viability, T/C (second compound 0.03 µM, first compound 10 µM) was 16.5%. The viability, T/C (second compound 0.0949 µM, first compound 0.0316 µM) was 8.35%, the viability, T/C (second compound 0.0949 µM, first compound 0.1 µM) was 8.9% and the viability, T/C (second compound 0.0949 µM, first compound 0.316 µM) was 8.97%. For the same molecule, the viability, T/C (second compound 0.0949 µM, first compound 1 µM) was 9.36%, the viability, T/C (second compound 0.0949 µM, first compound 3.16 µM) was 9.42% and the viability, T/C (second compound 0.0949 µM, first compound 10 µM) was 16.1%. The viability, T/C (second compound 0.3 µM, first compound 0.0316 µM) was 6.76%, the viability, T/C (second compound 0.3 µM, first compound 0.1 µM) was 6.43% and the viability, T/C (second compound 0.3 µM, first compound 0.316 µM) was 7.66%. The viability, T/C (second compound 0.3 µM, first compound 1 µM) was 8.04%, the viability, T/C (second compound 0.3 µM, first compound 3.16 µM) was 9.25% and the viability, T/C (second compound 0.3 µM, first compound 10 µM) was 12.2%.

For CCc1c2c(nc3ccc(O)cc13)-c1cc3c(c(=O)n1C2)COC(=O)[C@]3(O)CC + CCn1c(-c2cccnc2C(C)OC)c2c3cc(ccc31)N1CCOC(CC(NC(=O)C(C(C)C)N(C)C(=O)C3(F)CCN(C(=O)C#CC(C)(C)N(C)C)CC3)C(=O)N3CCCC(N3)C(=O)OCC(C)(C)C2)C1, the IC50 (second compound 0.000949 µM) was under 0.949 nM, the IC50 (second compound 0.003 µM) was under 0.949 nM and the IC50 (second compound 0.00949 µM) was under 0.949 nM. For the same molecule, the IC50 (second compound 0.03 µM) was under 0.949 nM, the IC50 (second compound 0.0949 µM) was under 0.949 nM and the IC50 (second compound 0.3 µM) was under 0.949 nM. It also gave a viability, T/C (second compound 0.000949 µM, first compound 0.000949 µM) of 27.9%, a viability, T/C (second compound 0.000949 µM, first compound 0.003 µM) of 13.4% and a viability, T/C (second compound 0.000949 µM, first compound 0.00949 µM) of 3.4%. For the same molecule, the viability, T/C (second compound 0.000949 µM, first compound 0.03 µM) was 2.46%, the viability, T/C (second compound 0.000949 µM, first compound 0.0949 µM) was 1.53% and the viability, T/C (second compound 0.000949 µM, first compound 0.3 µM) was 0.79%. For the same molecule, the viability, T/C (second compound 0.003 µM, first compound 0.000949 µM) was 23.4%, the viability, T/C (second compound 0.003 µM, first compound 0.003 µM) was 12.6% and the viability, T/C (second compound 0.003 µM, first compound 0.00949 µM) was 3.29%. For the same molecule, the viability, T/C (second compound 0.003 µM, first compound 0.03 µM) was 1.82%, the viability, T/C (second compound 0.003 µM, first compound 0.0949 µM) was 1.53% and the viability, T/C (second compound 0.003 µM, first compound 0.3 µM) was 0.91%. The viability, T/C (second compound 0.00949 µM, first compound 0.000949 µM) was 27.1%, the viability, T/C (second compound 0.00949 µM, first compound 0.003 µM) was 11.9% and the viability, T/C (second compound 0.00949 µM, first compound 0.00949 µM) was 3.95%. The viability, T/C (second compound 0.00949 µM, first compound 0.03 µM) was 2.01%, the viability, T/C (second compound 0.00949 µM, first compound 0.0949 µM) was 1.54% and the viability, T/C (second compound 0.00949 µM, first compound 0.3 µM) was 0.96%. It also gave a viability, T/C (second compound 0.03 µM, first compound 0.000949 µM) of 25.5%, a viability, T/C (second compound 0.03 µM, first compound 0.003 µM) of 12.3% and a viability, T/C (second compound 0.03 µM, first compound 0.00949 µM) of 3.53%. It also gave a viability, T/C (second compound 0.03 µM, first compound 0.03 µM) of 2.17%, a viability, T/C (second compound 0.03 µM, first compound 0.0949 µM) of 1.25% and a viability, T/C (second compound 0.03 µM, first compound 0.3 µM) of 0.77%. The viability, T/C (second compound 0.0949 µM, first compound 0.000949 µM) was 23.6%, the viability, T/C (second compound 0.0949 µM, first compound 0.003 µM) was 8.82% and the viability, T/C (second compound 0.0949 µM, first compound 0.00949 µM) was 3.56%. For the same molecule, the viability, T/C (second compound 0.0949 µM, first compound 0.03 µM) was 1.45%, the viability, T/C (second compound 0.0949 µM, first compound 0.0949 µM) was 0.88% and the viability, T/C (second compound 0.0949 µM, first compound 0.3 µM) was 0.84%. It also gave a viability, T/C (second compound 0.3 µM, first compound 0.000949 µM) of 18.7%, a viability, T/C (second compound 0.3 µM, first compound 0.003 µM) of 7.22% and a viability, T/C (second compound 0.3 µM, first compound 0.00949 µM) of 2.67%. The viability, T/C (second compound 0.3 µM, first compound 0.03 µM) was 1.54%, the viability, T/C (second compound 0.3 µM, first compound 0.0949 µM) was 1.11% and the viability, T/C (second compound 0.3 µM, first compound 0.3 µM) was 1.43%.

Source: PubChem BioAssay AID2060885 (Molecular Pharmacology Branch, DTP, NCI, 2025)
